Data reported in patent US11382918B2, “Methods for treating Huntington's Disease” (PTC Therapeutics, Inc., priority 2017, dated 2022).
Counter-ions that a name gives are not always drawn.

System: Endogenous Huntingtin Protein (HTT)
Assay: Endogenous Huntingtin Protein Assay (ELISA-based MSD electrochemiluminescence)
Assay type: cell-based
Details: Table 1
Summary of the method: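 HTT protein in lysates was measured by electrochemiluminescence on the MSD platform. Rabbit monoclonal 5656S followed by SULFO-TAG anti-rabbit antibody served for detection after overnight 4 °C capture with MAB2166 or the polyglutamine-directed MW1 antibody.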

| Structure (SMILES) | IC50 [µM] |
| --- | --- |
| CCN1CC=C(c2ccc3nc(-c4ccn5nc(C)cc5c4)cc(=O)n3c2)CC1 [compound 858, 7-(1-ethyl-1,2,3,6-tetrahydropyridin-4-yl)-2-(2-methylpyrazolo[1,5-a]pyridin-5-yl)-4H-pyrido[1,2-a]pyrimidin-4-one] | 1 to 3 |
| Cc1cn2nc(-c3cc(=O)n4cc(N5CCC(C)(NCCO)CC5)ccc4n3)cc2c(C)n1 [compound 709, 2-(4,6-dimethylpyrazolo[1,5-a]pyrazin-2-yl)-7-{4-[(2-hydroxyethyl)amino]-4-methylpiperidin-1-yl}-4H-pyrido[1,2-a]pyrimidin-4-one] | 3 to 33 |
| Cc1cn2cc(-c3cc(=O)n4cc(C5CCNCC5)ncc4n3)cc(C)c2n1 [compound 588, 2-(2,8-dimethylimidazo[1,2-a]pyridin-6-yl)-7-(piperidin-4-yl)-4H-pyrazino[1,2-a]pyrimidin-4-one] | 0.5 to 1 |
| Cn1cc2cc(-c3cc(=O)n4cc(C5CCN(CCO)CC5)ccc4n3)ccc2n1 [compound 613, 7-[1-(2-hydroxyethyl)piperidin-4-yl]-2-(2-methyl-2H-indazol-5-yl)-4H-pyrido[1,2-a]pyrimidin-4-one] | 1 to 3 |
| Cc1cn2nc(-c3cc(=O)n4cc(N5CCC(NCCO)CC5)cc(C)c4n3)cc2c(C)n1 [compound 609, 2-(4,6-dimethylpyrazolo[1,5-a]pyrazin-2-yl)-7-{4-[(2-hydroxyethyl)amino]piperidin-1-yl}-9-methyl-4H-pyrido[1,2-a]pyrimidin-4-one] | 3 to 33 |
| CCN1C[C@@H]2C[C@H]1CN2c1ccc2nc(-c3cc4c(C)nc(C)cn4n3)cc(=O)n2c1 [compound 401, 2-(4,6-dimethylpyrazolo[1,5-a]pyrazin-2-yl)-7-[(1S,4S)-5-ethyl-2,5-diazabicyclo[2.2.1]hept-2-yl]-4H-pyrido[1,2-a]pyrimidin-4-one] | 3 to 33 |
| Cc1nc(-c2cc(=O)n3cc(C4=CCNCC4)ccc3n2)cc2cnn(C)c12 [compound 861, 2-(1,7-dimethyl-1H-pyrazolo[3,4-c]pyridin-5-yl)-7-(1,2,3,6-tetrahydropyridin-4-yl)-4H-pyrido[1,2-a]pyrimidin-4-one hydrochloride (1:2)] | 3 to 33 |
| CN(C)c1ccc(-c2cc(=O)n3cc(C4=CCNCC4)ccc3n2)cn1 [compound 444, 2-[6-(dimethylamino)pyridin-3-yl]-7-(1,2,3,6-tetrahydropyridin-4-yl)-4H-pyrido[1,2-a]pyrimidin-4-one] | 3 to 33 |
| CCN1CCC(c2cn3c(=O)cc(-c4cc(F)c5nn(C)cc5c4)nc3c(C)n2)CC1 [compound 872, 7-(1-ethylpiperidin-4-yl)-2-(7-fluoro-2-methyl-2H-indazol-5-yl)-9-methyl-4H-pyrazino[1,2-a]pyrimidin-4-one] | < 0.1 |
| Cc1cn2cc(-c3cc(=O)n4cc(N5CCN(C6CC6)CC5)ccc4n3)cc(F)c2n1 [compound 412, 7-(4-cyclopropylpiperazin-1-yl)-2-(8-fluoro-2-methylimidazo[1,2-a]pyridin-6-yl)-4H-pyrido[1,2-a]pyrimidin-4-one] | 3 to 33 |
| Cc1cn2cc(-c3cc(=O)n4cc(N5CCNCC5)ccc4n3)cc(C(F)(F)F)c2n1 [compound 733, 2-[2-methyl-8-(trifluoromethyl)imidazo[1,2-a]pyridin-6-yl]-7-(piperazin-1-yl)-4H-pyrido[1,2-a]pyrimidin-4-one] | 1 to 3 |
| Cc1csc(-c2cc(=O)n3cc(N4CCN[C@@H](C)C4)ccc3n2)n1 [compound 162, 7-[(3S)-3-methylpiperazin-1-yl]-2-(4-methyl-1,3-thiazol-2-yl)-4H-pyrido[1,2-a]pyrimidin-4-one] | 3 to 33 |
| Cc1nc2ccc(-c3cc(=O)n4cc(C5=CCNCC5)ccc4n3)cc2o1 [compound 302, 2-(2-methyl-1,3-benzoxazol-6-yl)-7-(1,2,3,6-tetrahydropyridin-4-yl)-4H-pyrido[1,2-a]pyrimidin-4-one] | 0.1 to 0.5 |
| CCc1nc(C)cn2nc(-c3cc(=O)n4cc(N5CCN(CCO)CC5)ccc4n3)cc12 [compound 549, 2-(4-ethyl-6-methylpyrazolo[1,5-a]pyrazin-2-yl)-7-[4-(2-hydroxyethyl)piperazin-1-yl]-4H-pyrido[1,2-a]pyrimidin-4-one] | 3 to 33 |
| Cc1cn2cc(-c3cc(=O)n4cc(N5CCNCC5)ccc4n3)cc(Cl)c2n1 [compound 287, 2-(8-chloro-2-methylimidazo[1,2-a]pyridin-6-yl)-7-(piperazin-1-yl)-4H-pyrido[1,2-a]pyrimidin-4-one] | 0.1 to 0.5 |
| Cc1cn2cc(-c3cc(=O)n4cc(C5CCN(CCO)CC5)ncc4n3)ccc2n1 [compound 581, 7-[1-(2-hydroxyethyl)piperidin-4-yl]-2-(2-methylimidazo[1,2-a]pyridin-6-yl)-4H-pyrazino[1,2-a]pyrimidin-4-one] | 1 to 3 |
| Cc1cn2nc(-c3cc(=O)n4cc(C5CCNCC5)ncc4n3)cc2c(C)n1 [compound 502, 2-(4,6-dimethylpyrazolo[1,5-a]pyrazin-2-yl)-7-(piperidin-4-yl)-4H-pyrazino[1,2-a]pyrimidin-4-one] | < 0.1 |
| CN1CCN(c2ccc3nc(-c4ccc5c(cnn5C)c4)cc(=O)n3c2)CC1 [compound 489, 2-(1-methyl-1H-indazol-5-yl)-7-(4-methylpiperazin-1-yl)-4H-pyrido[1,2-a]pyrimidin-4-one] | 3 to 33 |
| Cc1cc(C2CCN(C)CC2)cn2c(=O)cc(-c3ccc4nn(C)cc4c3)nc12 [compound 705, 9-methyl-2-(2-methyl-2H-indazol-5-yl)-7-(1-methylpiperidin-4-yl)-4H-pyrido[1,2-a]pyrimidin-4-one] | 0.5 to 1 |
| CCN1CCC(c2cn3c(=O)cc(-c4ccc5nc(C)cn5n4)nc3c(C)n2)CC1 [compound 873, 7-(1-ethylpiperidin-4-yl)-9-methyl-2-(2-methylimidazo[1,2-b]pyridazin-6-yl)-4H-pyrazino[1,2-a]pyrimidin-4-one] | 0.1 to 0.5 |
| CCc1nc(C)cn2nc(-c3cc(=O)n4cc(N5CCC(N(C)C)CC5)ccc4n3)cc12 [compound 550, 7-[4-(dimethylamino)piperidin-1-yl]-2-(4-ethyl-6-methylpyrazolo[1,5-a]pyrazin-2-yl)-4H-pyrido[1,2-a]pyrimidin-4-one] | 3 to 33 |
| Cc1cc(-c2cc(=O)n3cc(C4=CCNCC4)ccc3n2)nc2cn(C)nc12 [compound 863, 2-(2,7-dimethyl-2H-pyrazolo[4,3-b]pyridin-5-yl)-7-(1,2,3,6-tetrahydropyridin-4-yl)-4H-pyrido[1,2-a]pyrimidin-4-one hydrochloride (1:2)] | 1 to 3 |

Next, values leading:

| IC50 [µM] | Structure (SMILES) |
| --- | --- |
| 0.1 to 0.5 | CCc1nc(C)cn2nc(-c3cc(=O)n4cc(C5CCNCC5)ccc4n3)cc12 [compound 656, 2-(4-ethyl-6-methylpyrazolo[1,5-a]pyrazin-2-yl)-7-(piperidin-4-yl)-4H-pyrido[1,2-a]pyrimidin-4-one] |
| 1 to 3 | Cc1cn2nc(-c3cc(=O)n4cc(N5CCN[C@@H](C)C5)ccc4n3)cc2cn1 [compound 441, 7-[(3S)-3-methylpiperazin-1-yl]-2-(6-methylpyrazolo[1,5-a]pyrazin-2-yl)-4H-pyrido[1,2-a]pyrimidin-4-one] |
| < 0.1 | Cc1cc(-c2cc(=O)n3cc(C4CCNCC4)nc(C)c3n2)cc2cn(C)nc12 [compound 871, 2-(2,7-dimethyl-2H-indazol-5-yl)-9-methyl-7-(piperidin-4-yl)-4H-pyrazino[1,2-a]pyrimidin-4-one hydrochloride (1:1)] |
| 1 to 3 | Cc1cn2nc(-c3cc(=O)n4cc(N5CCNCC5)ccc4n3)cc2cn1 [compound 420, 2-(6-methylpyrazolo[1,5-a]pyrazin-2-yl)-7-(piperazin-1-yl)-4H-pyrido[1,2-a]pyrimidin-4-one] |
| 1 to 3 | Cc1cn2cc(-c3cc(=O)n4cc(C5CCN(CCO)CC5)ncc4n3)cc(Cl)c2n1 [compound 599, 2-(8-chloro-2-methylimidazo[1,2-a]pyridin-6-yl)-7-[1-(2-hydroxyethyl)piperidin-4-yl]-4H-pyrazino[1,2-a]pyrimidin-4-one] |
| 3 to 33 | COc1cnc(-c2cc(=O)n3cc(N4CCNCC4)ccc3n2)cc1OC [compound 199, 2-(4,5-dimethoxypyridin-2-yl)-7-(piperazin-1-yl)-4H-pyrido[1,2-a]pyrimidin-4-one] |
| 1 to 3 | CCc1nc(C)cn2nc(-c3cc(=O)n4cc(N5CCN[C@@H](C)C5)ccc4n3)cc12 [compound 635, 2-(4-ethyl-6-methylpyrazolo[1,5-a]pyrazin-2-yl)-7-[(3S)-3-methylpiperazin-1-yl]-4H-pyrido[1,2-a]pyrimidin-4-one] |
| 0.5 to 1 | Cc1cn2cc(-c3ccc4nc(C5CCNCC5)cc(=O)n4c3)cc(F)c2n1 [compound 410, 7-(8-fluoro-2-methylimidazo[1,2-a]pyridin-6-yl)-2-(piperidin-4-yl)-4H-pyrido[1,2-a]pyrimidin-4-one] |
| 1 to 3 | Cc1cn2nc(-c3cc(=O)n4cc(N5CCN(CCO)[C@H](C)C5)ccc4n3)cc2c(C)n1 [compound 532, 2-(4,6-dimethylpyrazolo[1,5-a]pyrazin-2-yl)-7-[(3R)-4-(2-hydroxyethyl)-3-methylpiperazin-1-yl]-4H-pyrido[1,2-a]pyrimidin-4-one] |
| 3 to 33 | Cc1cn2nc(-c3cc(=O)n4cc(N5CCNCC5)ccc4n3)cc2c(N(C)C)n1 [compound 688, 2-[4-(dimethylamino)-6-methylpyrazolo[1,5-a]pyrazin-2-yl]-7-(piperazin-1-yl)-4H-pyrido[1,2-a]pyrimidin-4-one] |
| 0.5 to 1 | Cc1cc(-c2cc(=O)n3cc(C4CCNCC4)ccc3n2)cc2cn(C)nc12 [compound 739, 2-(2,7-dimethyl-2H-indazol-5-yl)-7-(piperidin-4-yl)-4H-pyrido[1,2-a]pyrimidin-4-one] |
| 3 to 33 | CN1CCC(c2ccc3nc(-c4ccc(N(C)C)nc4)cc(=O)n3c2)CC1 [compound 841, 2-[6-(dimethylamino)pyridin-3-yl]-7-(1-methylpiperidin-4-yl)-4H-pyrido[1,2-a]pyrimidin-4-one] |
| 3 to 33 | Cc1cn2cc(-c3cc(=O)n4cc(C5CCN(C)CC5)ncc4n3)ccc2n1 [compound 579, 2-(2-methylimidazo[1,2-a]pyridin-6-yl)-7-(1-methylpiperidin-4-yl)-4H-pyrazino[1,2-a]pyrimidin-4-one] |
